Measured values from patent US20050113286A1, “Methods for treating congestive heart failure” (priority 2002, published 2005).

System: patients with chronic decompensated HF
Test: FUSION I: clinical outcomes (death, hospitalization, days alive and out of hospital) through 12 weeks
Format: in vivo, human
Procedure: In this multicenter, open-label, pilot study, patients were randomly assigned to 1 of 3 treatment groups in a 1:1:1 ratio: (1) usual care, as determined by the investigating physician; (2) usual care plus nesiritide 0.005 μg/kg/min given for 4 to 6 hours, preceded by a 1.0-μg/kg bolus; or (3) usual care plus nesiritide 0.01 μg/kg/min given for 4 to 6 hours, preceded by a 2.0-μg/kg bolus (FIG. 1). The study treatment period was 12 weeks with an additional 4 weeks of follow-up. Nesiritide (Natrecor®) was supplied by Scios Inc., Fremont, Calif. Informed consent was obtained from each patient prior to enrollment, and the Ethics Committee of each institution prospectively approved the study.
The primary goal of this open-label study was to assess the safety and tolerability of different nesiritide doses administered as serial outpatient infusions. Safety and tolerability were measured through investigator reporting of adverse events (AEs), serious AEs, discontinuations of study infusions, laboratory assessments, and vital signs. An AE was defined as any new onset or worsening of any medical condition since study entry. A serious AE were those AEs, which lead to death, hospitalization, or prolonged hospitalization. The effect of nesiritide infusions on renal function was also monitored as a safety variable, with renal AEs defined as increased blood urea nitrogen (BUN) or serum creatinine levels (determined by investigator's discretion), onset of oliguria, or occurrence of acute renal failure. Clinical events were followed to further evaluate safety and tolerability.
To characterize treatment groups with respect to known prognostic factors for hospitalization or death, patients were prospectively stratified using a Risk Assessment Score (RAS). Two levels of risk were defined: patients with an RAS≧4 (i.e., with 4 or more of the 7 risk factors) and patients with an RAS<4. Risk factors utilized were: (1) serum creatinine of >2.0 mg/dl in the preceding 30 days; (2) NYHA class IV for the preceding 60 days; (3)≧65 years old; (4) history of sustained ventricular tachycardia; (5) ischemic etiology of HF; (6) diabetes; and (7) outpatient use of nesiritide or inotropic agents in preceding 6 months.
The effect of treatment was assessed with a 2-way ANOVA, an F test, a stratified Wilcoxon test, a Wilcoxon test, or the generalized Fisher's exact test, depending on the distribution of the variable. Kaplan-Meier estimates of the survival curves for morbidity/mortality time-to-event data were calculated. A log-rank or stratified log-rank test was used for comparisons between 2 treatment groups.

[1] = RAS ≧4 patients, 0.005 μg/kg/min, n = 24, through 12 weeks
[2] = RAS ≧4 patients, 0.01 μg/kg/min, n = 20, through 12 weeks
[3] = RAS ≧4 patients, both nesiritide groups, n = 44, through 12 weeks
[4] = all patients, 0.005 μg/kg/min, n = 72, through 12 weeks
[5] = all patients, 0.01 μg/kg/min, n = 69, through 12 weeks
[6] = all patients, both nesiritide groups, n = 141, through 12 weeks
[7] = baseline NYHA class IV, 0.005 μg/kg/min, n = 25
[8] = baseline NYHA class IV, 0.01 μg/kg/min, n = 22
[9] = baseline NYHA class IV, both nesiritide groups, n = 47
[10] = baseline NYHA class IV, both nesiritide groups, n = 47, p = 0.148 compared with usual care
[11] = lowest serum creatinine >2.0 mg/dL during 30 days prior to the study, 0.005 μg/kg/min, n = 13
[12] = lowest serum creatinine >2.0 mg/dL during 30 days prior to the study, 0.01 μg/kg/min, n = 14
[13] = lowest serum creatinine >2.0 mg/dL during 30 days prior to the study, both nesiritide groups, n = 27
[14] = lowest serum creatinine >2.0 mg/dL during 30 days prior to the study, both nesiritide groups, n = 27, p = 0.176 compared with usual care

Nesiritide: a recombinant form of human B-type natriuretic peptide (BNP)
Hospitalizations compared with usual care (NYHA class IV status): trend towards a reduction
All-cause death and hospitalization, % of patients [1]: 42%
All-cause death and hospitalization, number of patients [1]: 10
All-cause hospitalization, % of patients [1]: 42%
All-cause hospitalization, number of patients [1]: 10
Days alive and out of hospital, 25th percentile [1]: 74.6 days
Days alive and out of hospital, Mean ± SD [1]: 76.3 ± 16.8 days
Deaths, % of patients [1]: 4%
Deaths, number of patients [1]: 1
All-cause death and hospitalization, % of patients [2]: 65%
All-cause death and hospitalization, number of patients [2]: 13
All-cause hospitalization, % of patients [2]: 60%
All-cause hospitalization, number of patients [2]: 12
Days alive and out of hospital, 25th percentile [2]: 75.3 days
Days alive and out of hospital, Mean ± SD [2]: 77.2 ± 14.0 days
Deaths, % of patients [2]: 5%
Deaths, number of patients [2]: 1
All-cause death and hospitalization, % of patients [3]: 52%
All-cause death and hospitalization, number of patients [3]: 23
All-cause hospitalization, % of patients [3]: 50%
All-cause hospitalization, number of patients [3]: 22
Days alive and out of hospital, 25th percentile [3]: 75.0 days
Days alive and out of hospital, Mean ± SD [3]: 76.7 ± 15.5 days
Deaths, % of patients [3]: 5%
Deaths, number of patients [3]: 2
Days alive and out of the hospital compared to the usual care group (RAS≧4 cohort, p=0.027): statistically significant increase
Deaths or hospitalizations compared with usual care only (RAS≧4 patients): statistically significantly fewer
All-cause death and hospitalization, % of patients [4]: 46%
All-cause death and hospitalization, number of patients [4]: 33
All-cause hospitalization, % of patients [4]: 44%
All-cause hospitalization, number of patients [4]: 32
Days alive and out of hospital, 25th percentile [4]: 74.2 days
Days alive and out of hospital, Mean ± SD [4]: 76.1 ± 15.3 days
Deaths, % of patients [4]: 8%
Deaths, number of patients [4]: 6
All-cause death and hospitalization, % of patients [5]: 49%
All-cause death and hospitalization, number of patients [5]: 34
All-cause hospitalization, % of patients [5]: 48%
All-cause hospitalization, number of patients [5]: 33
Days alive and out of hospital, 25th percentile [5]: 79.0 days
Days alive and out of hospital, Mean ± SD [5]: 78.9 ± 10.9 days
Deaths, % of patients [5]: 4%
Deaths, number of patients [5]: 3
All-cause death and hospitalization, % of patients [6]: 48%
All-cause death and hospitalization, number of patients [6]: 67
All-cause hospitalization, % of patients [6]: 46%
All-cause hospitalization, number of patients [6]: 65
Days alive and out of hospital, 25th percentile [6]: 77.6 days
Days alive and out of hospital, Mean ± SD [6]: 77.5 ± 13.3 days
Deaths, % of patients [6]: 6%
Deaths, number of patients [6]: 9
Deaths or hospitalizations compared with usual-care group (all patients, each nesiritide dose group and all nesiritide group): no statistically significant differences
Days alive and out of the hospital compared with usual-care patients (all patients, p=0.131): trends for increasing days alive and out of the hospital
Days alive and out of hospital, Mean ± SD [7]: 73.3 ± 18.4 days
Days alive and out of hospital, Median [7]: 84 days
Patient deaths, % [7]: 8%
Patient deaths, number [7]: 2
Patients hospitalized, % [7]: 48%
Patients hospitalized, number [7]: 12
Days alive and out of hospital, Mean ± SD [8]: 77.7 ± 13.5 days
Days alive and out of hospital, Median [8]: 82 days
Patient deaths, % [8]: 5%
Patient deaths, number [8]: 1
Patients hospitalized, % [8]: 55%
Patients hospitalized, number [8]: 12
Days alive and out of hospital, Median [9]: 83 days
Patient deaths, % [9]: 6%
Patient deaths, number [9]: 3
Patients hospitalized, % [10]: 51%
Patients hospitalized, number [10]: 24
Days alive and out of hospital, Mean ± SD (baseline NYHA class IV, both nesiritide groups, n = 47, p = 0.182 compared with usual care): 75.4 ± 16.2 days
Days alive and out of hospital compared to usual care alone (elevated serum creatinine, >2.0 mg/dL): statistically significant increase
Days alive and out of hospital, Mean ± SD [11]: 75.7 ± 19.0 days
Days alive and out of hospital, Median [11]: 84 days
Patient deaths, % [11]: 8%
Patient deaths, number [11]: 1
Patients hospitalized, % [11]: 46%
Patients hospitalized, number [11]: 6
Days alive and out of hospital, Mean ± SD [12]: 78.4 ± 9.0 days
Days alive and out of hospital, Median [12]: 81 days
Patient deaths, % [12]: 7%
Patient deaths, number [12]: 1
Patients hospitalized, % [12]: 57%
Patients hospitalized, number [12]: 8
Days alive and out of hospital, Median [13]: 81 days
Patient deaths, % [13]: 7%
Patient deaths, number [13]: 2
Days alive and out of hospital, Mean ± SD (lowest serum creatinine >2.0 mg/dL during 30 days prior to the study, both nesiritide groups, n = 27, p = 0.019 compared with usual care): 77.1 ± 14.7 days
Patients hospitalized, % [14]: 52%
Patients hospitalized, number [14]: 14
